Like-named read-outs stand apart in the source and are kept apart here.
Tests used:
non-expressing oocytes [1] = type: cell-based, Xenopus laevis; conditions: non-expressing oocytes, total [3H]CQ transport, normalised to the oocyte type control
Method in brief: (§1)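 Oocytes (ten per treatment, ≥4 independent frogs/days) were preloaded by injecting VF-6 in 25 nL ND96 at pH 5.0, 5.5, 6.0 or 7.0, or Na^+-free choline buffer, then uptake run 1.5 h, 27.5 °C, ND96 pH 5.5 by default. Internal concentrations assumed ~400 nL oocyte volume.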

PfCRT^3D7 [2] = target: T1, PfCRT^3D7 (Plasmodium falciparum, UniProt Q8IBZ9); assay: cell-based; type: cell-based; conditions: PfCRT3D7 oocytes, total [3H]CQ transport, normalised to the oocyte type control
Method in brief: (§2)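 Each treatment used ten oocytes, repeated in at least four experiments on different days with oocytes from different frogs. Conditions: ND96 pH 5.5, 27.5 °C, 1.5 h; read-out by scintillation counting.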

PfNT1 = target: T2, PfNT1 (Plasmodium falciparum, UniProt Q8IDM6); assay: cell-based; type: cell-based; conditions: PfNT1 oocytes, total [3H]CQ transport, normalised to the oocyte type control
T2 construct: expressed in transfected cells; host or cells: Xenopus laevis oocytes (stage V-VI), cRNA-injected
Method in brief: as §1

PfCRT^Dd2 [3] = target: T3, PfCRT^Dd2 (Plasmodium falciparum, UniProt Q9N623, A220S/I356T/K76T/M74I/N326S/N75E/Q271E/R371I); assay: cell-based; type: cell-based; conditions: for Uptake of [3H]CQ (% PfCRTDd2 control), trans-stimulation / PfCRT-mediated [3H]CQ transport, trans-stimulation (% PfCRTDd2 control): PfCRTDd2 oocytes; for Uptake of [3H]CQ (% PfCRTDd2 control), trans-stimulation: total [3H]CQ transport, normalised to the oocyte type control; for PfCRT-mediated [3H]CQ transport, trans-stimulation (% PfCRTDd2 control): normalised to oocyte type control; for [3H]CQ transport (% PfCRTDd2 control), trans-stimulation, PfCRTDd2: PfCRT-mediated component (background subtracted), mean ± SEM, SEM
Method in brief: as §1

PfCRT^Ecu1110 [4] = target: T4, PfCRT^Ecu1110 (Plasmodium falciparum, UniProt Q9N623, A220S/I356L/K76T/N326D); assay: cell-based; type: cell-based; conditions: for Uptake of [3H]CQ (% PfCRTEcu1110 control), trans-stimulation / PfCRT-mediated [3H]CQ transport, trans-stimulation (% PfCRTEcu1110 control): PfCRTEcu1110 oocytes; for Uptake of [3H]CQ (% PfCRTEcu1110 control), trans-stimulation: total [3H]CQ transport, normalised to the oocyte type control; for PfCRT-mediated [3H]CQ transport, trans-stimulation (% PfCRTEcu1110 control): normalised to oocyte type control; for [3H]CQ transport (% PfCRTDd2 control), trans-stimulation, PfCRTEcu1110: PfCRT-mediated component (background subtracted), sheet title says normalised to PfCRTDd2 control, mean ± SEM, SEM
Method in brief: as §1

PfCRT^3D7 [5] = target: T1, PfCRT^3D7; assay: cell-based; type: cell-based; conditions: PfCRT3D7 oocytes; for Uptake of [3H]CQ (% PfCRT3D7 control), trans-stimulation: total [3H]CQ transport, normalised to the oocyte type control; for PfCRT-mediated [3H]CQ transport, trans-stimulation (% PfCRT3D7 control): normalised to oocyte type control
Method in brief: as §1

PfCRT^Dd2 [6] = target: T3, PfCRT^Dd2; assay: [3H]CQ uptake into Xenopus oocytes, cis-inhibition by unlabelled solute; type: cell-based; conditions: PfCRTDd2 oocytes, background [3H]CQ accumulation subtracted, normalised to oocyte type control
Method in brief: as §2

PfCRT^Ecu1110 [7] = target: T4, PfCRT^Ecu1110; assay: as above; type: cell-based; conditions: for Uptake of [3H]CQ (% PfCRTEcu1110 control), cis-inhibition / PfCRT-mediated [3H]CQ transport, cis-inhibition (% PfCRTEcu1110 control): PfCRTEcu1110 oocytes; for Uptake of [3H]CQ (% PfCRTEcu1110 control), cis-inhibition: total [3H]CQ transport, normalised to the oocyte type control; for PfCRT-mediated [3H]CQ transport, cis-inhibition (% PfCRTEcu1110 control): background [3H]CQ accumulation subtracted, normalised to oocyte type control; for [3H]CQ transport (% PfCRTEcu1110 control), cis-inhibition, PfCRTEcu1110: PfCRT-mediated component (background subtracted), sheet title says normalised to PfCRTDd2 control, mean ± SEM, SEM
Method in brief: as §2

non-expressing oocytes [8] = assay: cells; type: cell-based, Xenopus laevis; conditions: non-expressing oocytes, total [3H]CQ transport, normalised to the oocyte type control
Method in brief: as §2

[9] = [test solute]i = 45 mM (30 mM for some solutes due to solubility)
[10] = [test solute]i = 5 mM (intracellular)
[11] = [test solute]i = 45 mM (intracellular; 30 mM for some solutes due to solubility)
[12] = [test solute]i = 5 mM (injected)

T3 sequence (Q9N623 whole entry A220S/I356T/K76T/M74I/N326S/N75E/Q271E/R371I): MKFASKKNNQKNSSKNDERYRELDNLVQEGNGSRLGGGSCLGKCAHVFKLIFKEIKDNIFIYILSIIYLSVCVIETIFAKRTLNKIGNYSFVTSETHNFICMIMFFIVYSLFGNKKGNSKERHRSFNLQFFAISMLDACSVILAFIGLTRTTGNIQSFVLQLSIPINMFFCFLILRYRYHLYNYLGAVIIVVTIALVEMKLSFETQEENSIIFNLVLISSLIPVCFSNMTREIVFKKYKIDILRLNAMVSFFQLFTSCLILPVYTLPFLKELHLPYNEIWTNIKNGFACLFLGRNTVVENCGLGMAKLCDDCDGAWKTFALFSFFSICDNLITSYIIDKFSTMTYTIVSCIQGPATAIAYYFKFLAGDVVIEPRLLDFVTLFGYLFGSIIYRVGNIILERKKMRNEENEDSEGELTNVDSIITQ
T4 sequence (Q9N623 whole entry A220S/I356L/K76T/N326D): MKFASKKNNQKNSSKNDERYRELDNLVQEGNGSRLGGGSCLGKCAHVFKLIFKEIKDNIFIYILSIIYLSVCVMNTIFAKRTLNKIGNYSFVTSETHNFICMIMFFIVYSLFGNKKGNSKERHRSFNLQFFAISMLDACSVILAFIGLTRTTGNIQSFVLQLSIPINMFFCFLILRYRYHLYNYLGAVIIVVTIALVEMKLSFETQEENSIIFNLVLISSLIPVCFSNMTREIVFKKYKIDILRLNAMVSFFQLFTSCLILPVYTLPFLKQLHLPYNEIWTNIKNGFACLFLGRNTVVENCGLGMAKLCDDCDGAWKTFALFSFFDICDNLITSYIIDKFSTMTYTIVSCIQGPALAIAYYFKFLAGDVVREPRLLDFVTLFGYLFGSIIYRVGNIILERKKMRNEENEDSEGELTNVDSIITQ
T1 sequence (Q8IBZ9 59-398): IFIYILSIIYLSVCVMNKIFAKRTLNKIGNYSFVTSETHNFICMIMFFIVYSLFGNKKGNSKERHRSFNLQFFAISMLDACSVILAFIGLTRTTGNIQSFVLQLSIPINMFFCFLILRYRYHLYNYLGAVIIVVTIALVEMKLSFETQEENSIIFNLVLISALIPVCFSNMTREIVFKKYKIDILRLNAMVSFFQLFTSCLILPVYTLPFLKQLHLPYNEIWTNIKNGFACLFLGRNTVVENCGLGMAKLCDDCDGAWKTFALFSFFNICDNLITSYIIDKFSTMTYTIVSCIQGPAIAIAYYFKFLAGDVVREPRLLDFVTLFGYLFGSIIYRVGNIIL
T2 sequence (Q8IDM6 whole entry): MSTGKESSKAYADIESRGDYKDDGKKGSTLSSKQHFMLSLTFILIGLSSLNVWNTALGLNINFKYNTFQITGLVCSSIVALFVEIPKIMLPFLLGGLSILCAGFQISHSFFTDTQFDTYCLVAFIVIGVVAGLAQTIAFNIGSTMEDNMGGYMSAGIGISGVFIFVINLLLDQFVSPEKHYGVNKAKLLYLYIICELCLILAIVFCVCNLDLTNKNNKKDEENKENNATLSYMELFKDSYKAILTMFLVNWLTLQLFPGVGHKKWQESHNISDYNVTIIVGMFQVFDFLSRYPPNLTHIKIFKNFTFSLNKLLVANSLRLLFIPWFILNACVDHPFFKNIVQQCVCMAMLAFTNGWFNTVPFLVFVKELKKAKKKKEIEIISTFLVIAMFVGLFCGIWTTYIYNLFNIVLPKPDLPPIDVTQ

## PENF [PEF-4]
non-expressing oocytes [1]; [test solute]i = 5 mM
  Uptake of [3H]CQ (% non-expressing oocyte control), trans-stimulation: 97 ± 3.5 % non-expressing oocyte control
non-expressing oocytes [1]; [9]
  Uptake of [3H]CQ (% non-expressing oocyte control), trans-stimulation: 100 ± 3.2 % non-expressing oocyte control
PfCRT^3D7 [2]; [test solute] = 0.5 mM
  Uptake of [3H]CQ (% PfCRT3D7 control), cis-inhibition: 100 ± 5.3 % PfCRT3D7 control
PfCRT^3D7 [2]; [test solute] = 1 mM
  Uptake of [3H]CQ (% PfCRT3D7 control), cis-inhibition: 98 ± 3.5 % PfCRT3D7 control
PfCRT^3D7 [2]; [test solute] = 2 mM
  Uptake of [3H]CQ (% PfCRT3D7 control), cis-inhibition: 100 ± 4.4 % PfCRT3D7 control
PfNT1; [test solute]i = 5 mM
  Uptake of [3H]CQ (% PfNT1 control), trans-stimulation: 101 ± 2.2 % PfNT1 control
PfNT1; [9]
  Uptake of [3H]CQ (% PfNT1 control), trans-stimulation: 99 ± 2.7 % PfNT1 control
PfCRT^Dd2 [3]; [test solute]i = 5 mM
  Uptake of [3H]CQ (% PfCRTDd2 control), trans-stimulation: 102 ± 2.2 % PfCRTDd2 control
PfCRT^Dd2 [3]; [9]
  Uptake of [3H]CQ (% PfCRTDd2 control), trans-stimulation: 99 ± 2.8 % PfCRTDd2 control
  [3H]CQ transport (% PfCRTDd2 control), trans-stimulation, PfCRTDd2: 97 ± 3.2 % PfCRTDd2 control
PfCRT^Dd2 [3]; [10]
  PfCRT-mediated [3H]CQ transport, trans-stimulation (% PfCRTDd2 control): 100 ± 3.2 % PfCRTDd2 control
PfCRT^Dd2 [3]; [11]
  PfCRT-mediated [3H]CQ transport, trans-stimulation (% PfCRTDd2 control): 97 ± 3.2 % PfCRTDd2 control
PfCRT^Dd2 [3]; [12]
  [3H]CQ transport (% PfCRTDd2 control), trans-stimulation, PfCRTDd2: 100 ± 3.2 % PfCRTDd2 control
PfCRT^Ecu1110 [4]; [test solute]i = 5 mM
  Uptake of [3H]CQ (% PfCRTEcu1110 control), trans-stimulation: 121 ± 3.2 % PfCRTEcu1110 control
PfCRT^Ecu1110 [4]; [9]
  Uptake of [3H]CQ (% PfCRTEcu1110 control), trans-stimulation: 132 ± 3.7 % PfCRTEcu1110 control
  [3H]CQ transport (% PfCRTDd2 control), trans-stimulation, PfCRTEcu1110: 39 ± 1.3 % PfCRTEcu1110 control
PfCRT^Ecu1110 [4]; [10]
  PfCRT-mediated [3H]CQ transport, trans-stimulation (% PfCRTEcu1110 control): 118 ± 1.1 % PfCRTEcu1110 control
PfCRT^Ecu1110 [4]; [11]
  PfCRT-mediated [3H]CQ transport, trans-stimulation (% PfCRTEcu1110 control): 128 ± 2.0 % PfCRTEcu1110 control
PfCRT^Ecu1110 [4]; [12]
  [3H]CQ transport (% PfCRTDd2 control), trans-stimulation, PfCRTEcu1110: 36 ± 1.6 % PfCRTEcu1110 control
PfCRT^3D7 [5]; [test solute]i = 5 mM
  Uptake of [3H]CQ (% PfCRT3D7 control), trans-stimulation: 135 ± 6.8 % PfCRT3D7 control
PfCRT^3D7 [5]; [9]
  Uptake of [3H]CQ (% PfCRT3D7 control), trans-stimulation: 151 ± 8.0 % PfCRT3D7 control
PfCRT^3D7 [5]; [10]
  PfCRT-mediated [3H]CQ transport, trans-stimulation (% PfCRT3D7 control): 128 ± 3.6 % PfCRT3D7 control
PfCRT^3D7 [5]; [11]
  PfCRT-mediated [3H]CQ transport, trans-stimulation (% PfCRT3D7 control): 145 ± 4.7 % PfCRT3D7 control
PfCRT^Dd2 [6]; [test solute] = 0.5 mM
  PfCRT-mediated [3H]CQ transport, cis-inhibition (% PfCRTDd2 control): 52 ± 2.0 % PfCRTDd2 control
PfCRT^Dd2 [6]; [test solute] = 1 mM
  PfCRT-mediated [3H]CQ transport, cis-inhibition (% PfCRTDd2 control): 37 ± 2.1 % PfCRTDd2 control
PfCRT^Dd2 [6]; [test solute] = 2 mM
  PfCRT-mediated [3H]CQ transport, cis-inhibition (% PfCRTDd2 control): 17 ± 0.3 % PfCRTDd2 control
PfCRT^Ecu1110 [7]; [test solute] = 0.5 mM
  Uptake of [3H]CQ (% PfCRTEcu1110 control), cis-inhibition: 55 ± 4.2 % PfCRTEcu1110 control
  PfCRT-mediated [3H]CQ transport, cis-inhibition (% PfCRTEcu1110 control): 49 ± 2.6 % PfCRTEcu1110 control
  [3H]CQ transport (% PfCRTEcu1110 control), cis-inhibition, PfCRTEcu1110: 15 ± 0.1 % PfCRTEcu1110 control
PfCRT^Ecu1110 [7]; [test solute] = 1 mM
  Uptake of [3H]CQ (% PfCRTEcu1110 control), cis-inhibition: 45 ± 4.7 % PfCRTEcu1110 control
  PfCRT-mediated [3H]CQ transport, cis-inhibition (% PfCRTEcu1110 control): 40 ± 3.5 % PfCRTEcu1110 control
  [3H]CQ transport (% PfCRTEcu1110 control), cis-inhibition, PfCRTEcu1110: 13 ± 0.3 % PfCRTEcu1110 control
PfCRT^Ecu1110 [7]; [test solute] = 2 mM
  Uptake of [3H]CQ (% PfCRTEcu1110 control), cis-inhibition: 34 ± 3.4 % PfCRTEcu1110 control
  PfCRT-mediated [3H]CQ transport, cis-inhibition (% PfCRTEcu1110 control): 28 ± 2.1 % PfCRTEcu1110 control
  [3H]CQ transport (% PfCRTEcu1110 control), cis-inhibition, PfCRTEcu1110: 9.0 ± 0.01 % PfCRTEcu1110 control
non-expressing oocytes [8]; [test solute] = 0.5 mM
  Uptake of [3H]CQ (% non-expressing oocyte control), cis-inhibition: 99 ± 5.8 % non-expressing oocyte control
non-expressing oocytes [8]; [test solute] = 1 mM
  Uptake of [3H]CQ (% non-expressing oocyte control), cis-inhibition: 98 ± 4.6 % non-expressing oocyte control
non-expressing oocytes [8]; [test solute] = 2 mM
  Uptake of [3H]CQ (% non-expressing oocyte control), cis-inhibition: 99 ± 4.4 % non-expressing oocyte control

Reference: paper PMC7413254 (Nature Communications, 2020)
